Where a name gives a salt, the structure may show the parent alone. Calls of active or inactive are those of the source. The calls are words filed in the database; no cut-off is given here.

In series [1] the target is T1, Protein cereblon/Virion infectivity factor (Human immunodeficiency virus type 1 group M subtype B (isolate NY5)(HIV-1)) (UniProt Q96SW2+P12504). Put plainly: PROTAC activity at CRBN (unknown origin)/Vif in HIV-1 TREX-hvif-15 cells assessed as reduction in Vif protein level at 50 uM pretreated with MG132 followed by compound addition and measured after 24 hrs by Western blotting analysis. In kind it is cell-based. To be noted: TREX-hvif-15 cell. (A western blot detects proteins with antibodies after separation by electrophoresis.)
T1 sequence (P12504 whole entry, looked up): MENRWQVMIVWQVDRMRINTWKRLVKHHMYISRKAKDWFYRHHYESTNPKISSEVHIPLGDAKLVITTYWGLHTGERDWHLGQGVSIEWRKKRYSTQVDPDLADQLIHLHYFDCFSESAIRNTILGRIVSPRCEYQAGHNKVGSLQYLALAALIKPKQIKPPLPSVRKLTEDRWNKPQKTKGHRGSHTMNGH
T1 sequence (Q96SW2 whole entry, looked up): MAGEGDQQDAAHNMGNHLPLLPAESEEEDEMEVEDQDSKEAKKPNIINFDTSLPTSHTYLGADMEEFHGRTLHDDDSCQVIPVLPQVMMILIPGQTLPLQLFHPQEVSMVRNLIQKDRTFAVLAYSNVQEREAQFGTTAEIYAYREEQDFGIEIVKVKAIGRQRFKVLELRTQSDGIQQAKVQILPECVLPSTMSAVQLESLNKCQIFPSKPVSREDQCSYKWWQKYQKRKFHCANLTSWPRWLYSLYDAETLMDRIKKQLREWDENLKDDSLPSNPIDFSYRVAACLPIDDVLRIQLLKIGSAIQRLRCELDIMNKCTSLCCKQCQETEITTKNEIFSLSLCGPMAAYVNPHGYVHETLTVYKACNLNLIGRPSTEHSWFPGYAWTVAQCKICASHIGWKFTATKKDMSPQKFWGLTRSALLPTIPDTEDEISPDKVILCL

Series [2] can be described thus: Cytotoxicity against human TZM-bl cells. Type of series: toxicity, cell-based.
Series [3] relates to Human immunodeficiency virus 1. The series can be described thus: Antiviral activity against HIV-1 IIIB infected in TZM-bl cells. Type of series: functional, organism-based. The note with it: Human immunodeficiency virus 1, IIIB.
The nature of series [4]: Therapeutic index, ratio of CC50 for human TZM-bl cells to EC50 for HIV IIIB infected in TZM-bl cells. In kind it is toxicity, cell-based. To be noted: read-out: Ratio CC50/EC50.
The target of series [5] is T1, Protein cereblon/Virion infectivity factor (Human immunodeficiency virus type 1 group M subtype B (isolate NY5)(HIV-1)). The series can be described thus: PROTAC activity at CRBN (unknown origin)/Vif in HIV-1 TREX-hvif-15 cells assessed as reduction in Vif protein level at 50 uM by Western blotting analysis. In kind it is cell-based. To be noted: TREX-hvif-15 cell.

Series [6] concerns Human immunodeficiency virus 1. The series can be described thus: Antiviral activity against HIV-1 2802 infected in C8166 cells. Type of series: functional, organism-based. The note with it: Human immunodeficiency virus 1, 2802, C8166.
Series [7] has as its system Human immunodeficiency virus 1. The series can be described thus: Antiviral activity against HIV-1 9498 infected in C8166 cells. Type of series: functional, organism-based. The note with it: Human immunodeficiency virus 1, 9498, C8166.

`COc1ccc(OCC(=O)NCCOCCOCCNc2cccc3c2C(=O)N(C2CCC(=O)N(C)C2=O)C3=O)cc1NC(=O)c1c(N)cccc1Sc1ccc([N+](=O)[O-])cc1` (stereo unspecified): the result in series [1] was inactive.
For `COc1ccc(OCC(=O)NCCNc2cccc3c2C(=O)N(C2CCC(=O)NC2=O)C3=O)cc1NC(=O)c1c(N)cccc1Sc1ccc([N+](=O)[O-])cc1` (stereo unspecified), the CC50 (as a rule, the concentration that lowers cell viability or growth by half) in series [2] was greater than 200 µM. Further, the EC50 (commonly the concentration at which the effect is half-maximal) in series [3] was greater than 100 µM.
The matching figures for `COc1ccc(OCC(=O)NCCNCC(=O)Nc2cccc3c2C(=O)N(C2CCC(=O)NC2=O)C3=O)cc1NC(=O)c1c(N)cccc1Sc1ccc([N+](=O)[O-])cc1` (stereo unspecified): greater than 200 µM and greater than 100 µM.
The like results for `COc1ccc(OCC(=O)NCCOCCNCC(=O)Nc2cccc3c2C(=O)N(C2CCC(=O)NC2=O)C3=O)cc1NC(=O)c1c(N)cccc1S(=O)(=O)c1ccc([N+](=O)[O-])cc1` (stereo unspecified) were, in that order, greater than 200 µM and greater than 100 µM.
On to `COc1ccc(OCC(=O)NCCOCCOCCNCC(=O)Nc2cccc3c2C(=O)N(C2CCC(=O)NC2=O)C3=O)cc1NC(=O)c1c(N)cccc1S(=O)(=O)c1ccc([N+](=O)[O-])cc1` (stereo unspecified), for which the half-maximal cytotoxic concentration (CC50) in series [2] is greater than 200 µM. This compound also yielded an EC50 in series [3] of 66.9 µM. Also, in series [4], the selectivity ratio is greater than 2.99.
In series [2], `COc1ccc(OCC(=O)NCCCCCCNc2cccc3c2C(=O)N(C2CCC(=O)NC2=O)C3=O)cc1NC(=O)c1c(N)cccc1S(=O)(=O)c1ccc([N+](=O)[O-])cc1` (stereo unspecified) showed a CC50 greater than 200 µM. The same compound displayed an EC50 in series [3] greater than 100 µM.
The like results for `COc1ccc(OCC(=O)NCCCCCCNCC(=O)Nc2cccc3c2C(=O)N(C2CCC(=O)NC2=O)C3=O)cc1NC(=O)c1c(N)cccc1S(=O)(=O)c1ccc([N+](=O)[O-])cc1` (stereo unspecified) were, in that order, greater than 200 µM and greater than 100 µM.
`COc1ccc(OCC(=O)NCCOCCOCCOCCNCC(=O)Nc2cccc3c2C(=O)N(C2CCC(=O)NC2=O)C3=O)cc1NC(=O)c1c(N)cccc1S(=O)(=O)c1ccc([N+](=O)[O-])cc1` (stereo unspecified) came in with a half-maximal cytotoxic concentration (CC50) in series [2] greater than 200 µM. The EC50 in series [3] worked out at 21.3 µM. The selectivity ratio in series [4] is greater than 9.39.
In the case of `COc1ccc(O)cc1NC(=O)c1c(N)cccc1Sc1ccc([N+](=O)[O-])cc1`, in series [5], the outcome was inactive. Besides, in series [2], the CC50 was greater than 200 µM. For the same compound, in series [3], a half-maximal response (EC50) required 5.97 µM. Also, the selectivity ratio in series [4] was greater than 33.5.
Compound `COc1ccc(OCC(=O)NCCCCNc2cccc3c2C(=O)N(C2CCC(=O)NC2=O)C3=O)cc1NC(=O)c1c(N)cccc1S(=O)(=O)c1ccc([N+](=O)[O-])cc1` (stereo unspecified) returned a CC50 in series [2] greater than 200 µM. In series [3], this compound yielded an EC50 greater than 100 µM.
The matching figures for `COc1ccc(OCC(=O)NCCCCCCCCCCNc2cccc3c2C(=O)N(C2CCC(=O)NC2=O)C3=O)cc1NC(=O)c1c(N)cccc1S(=O)(=O)c1ccc([N+](=O)[O-])cc1` (stereo unspecified): greater than 200 µM and greater than 100 µM.
For `COc1ccc(OCC(=O)NCCOCCOCCOCCNCC(=O)Nc2cccc3c2C(=O)N(C2CCC(=O)NC2=O)C3=O)cc1NC(=O)c1c(N)cccc1Sc1ccc([N+](=O)[O-])cc1` (stereo unspecified), in series [2], the CC50 was greater than 200 µM. Moreover, the EC50 in series [3] was greater than 100 µM.
The like results for `COc1ccc(OCC(=O)NCCCCCCCCCCNCC(=O)Nc2cccc3c2C(=O)N(C2CCC(=O)NC2=O)C3=O)cc1NC(=O)c1c(N)cccc1Sc1ccc([N+](=O)[O-])cc1` (stereo unspecified) were, in that order, greater than 200 µM and greater than 100 µM.
The like results for `COc1ccc(OCC(=O)NCCCCNCC(=O)Nc2cccc3c2C(=O)N(C2CCC(=O)NC2=O)C3=O)cc1NC(=O)c1c(N)cccc1S(=O)(=O)c1ccc([N+](=O)[O-])cc1` (stereo unspecified) were, in that order, greater than 200 µM and greater than 100 µM.
In the case of `CC(C)CN(C[C@@H](O)[C@H](Cc1ccccc1)NC(=O)O[C@H]1CO[C@H]2OCC[C@H]21)S(=O)(=O)c1ccc(N)cc1` [DARUNAVIR], in series [6], the EC50 is less than 0.032 µM.
`COc1ccc(OCC(=O)NCCOCCOCCNCC(=O)Nc2cccc3c2C(=O)N(C2CCC(=O)NC2=O)C3=O)cc1NC(=O)c1c(N)cccc1Sc1ccc([N+](=O)[O-])cc1` (stereo unspecified) displayed a CC50 in series [2] greater than 200 µM. In addition, a half-maximal response in series [3] (EC50) required 53.1 µM. Besides, the selectivity ratio in series [4] is greater than 3.77.
The compound `COc1ccc(OCC(=O)NCCNc2cccc3c2C(=O)N(C2CCC(=O)NC2=O)C3=O)cc1NC(=O)c1c(N)cccc1S(=O)(=O)c1ccc([N+](=O)[O-])cc1` (stereo unspecified) displayed a CC50 in series [2] greater than 200 µM. This compound also came in with an EC50 in series [3] greater than 100 µM.
In the case of `COc1ccc(OCC(=O)NCCCCCCCCCCNCC(=O)Nc2cccc3c2C(=O)N(C2CCC(=O)NC2=O)C3=O)cc1NC(=O)c1c(N)cccc1S(=O)(=O)c1ccc([N+](=O)[O-])cc1` (stereo unspecified), the CC50 in series [2] was greater than 200 µM. Besides, the EC50 in series [3] was found to be 29 µM. Also, the selectivity ratio in series [4] is greater than 6.9.
enfuvirtide registered an EC50 in series [7] greater than 10 µM.
Regarding `COc1ccc(OCC(=O)NCCOCCOCCOCCNc2cccc3c2C(=O)N(C2CCC(=O)NC2=O)C3=O)cc1NC(=O)c1c(N)cccc1S(=O)(=O)c1ccc([N+](=O)[O-])cc1` (stereo unspecified), in series [2], the CC50 is greater than 200 µM. Further, the EC50 in series [3] is greater than 100 µM.
Consider `COc1ccc(OCC(=O)NCCOCCNc2cccc3c2C(=O)N(C2CCC(=O)NC2=O)C3=O)cc1NC(=O)c1c(N)cccc1Sc1ccc([N+](=O)[O-])cc1` (stereo unspecified), for which the CC50 in series [2] is greater than 200 µM. In series [3], the EC50 was greater than 100 µM.
The like results for `COc1ccc(OCC(=O)NCCOCCNCC(=O)Nc2cccc3c2C(=O)N(C2CCC(=O)NC2=O)C3=O)cc1NC(=O)c1c(N)cccc1Sc1ccc([N+](=O)[O-])cc1` (stereo unspecified) were, in that order, greater than 200 µM and greater than 100 µM.
`CC(C)OC(=O)OCOP(=O)(CO[C@H](C)Cn1cnc2c(N)ncnc21)OCOC(=O)OC(C)C` [TENOFOVIR DISOPROXIL FUMARATE] displayed a CC50 in series [2] greater than 200 µM. In series [3], this compound had an EC50 of 0.005 µM. The selectivity ratio in series [4] was greater than 43800.
Consider `COc1ccc(OCC(=O)NCCCCCCCCCCNc2cccc3c2C(=O)N(C2CCC(=O)NC2=O)C3=O)cc1NC(=O)c1c(N)cccc1Sc1ccc([N+](=O)[O-])cc1` (stereo unspecified), for which the CC50 in series [2] was greater than 200 µM. The compound further gave a concentration for a half-maximal effect (EC50) in series [3] greater than 100 µM.
The like results for `COc1ccc(OCC(=O)NCCCCCCCCNc2cccc3c2C(=O)N(C2CCC(=O)NC2=O)C3=O)cc1NC(=O)c1c(N)cccc1Sc1ccc([N+](=O)[O-])cc1` (stereo unspecified) were, in that order, greater than 200 µM and greater than 100 µM.
Compound `COc1ccc(OCC(=O)NCCCCNCC(=O)Nc2cccc3c2C(=O)N(C2CCC(=O)NC2=O)C3=O)cc1NC(=O)c1c(N)cccc1Sc1ccc([N+](=O)[O-])cc1` (stereo unspecified) yielded a CC50 in series [2] greater than 200 µM. For the same compound, the EC50 in series [3] is greater than 100 µM.
In series [2], `COc1ccc(OCC(=O)NCCCCNc2cccc3c2C(=O)N(C2CCC(=O)NC2=O)C3=O)cc1NC(=O)c1c(N)cccc1Sc1ccc([N+](=O)[O-])cc1` (stereo unspecified) showed a CC50 greater than 200 µM. Further, the EC50 in series [3] was 34.8 µM. Further, in series [4], the selectivity ratio was greater than 5.76.
As to `COc1ccc(OCC(=O)NCCOCCOCCOCCNc2cccc3c2C(=O)N(C2CCC(=O)NC2=O)C3=O)cc1NC(=O)c1c(N)cccc1Sc1ccc([N+](=O)[O-])cc1` (stereo unspecified), the CC50 in series [2] is greater than 200 µM. In series [3], this compound came in with an EC50 greater than 100 µM.
The like results for `COc1ccc(OCC(=O)NCCOCCNc2cccc3c2C(=O)N(C2CCC(=O)NC2=O)C3=O)cc1NC(=O)c1c(N)cccc1S(=O)(=O)c1ccc([N+](=O)[O-])cc1` (stereo unspecified) were, in that order, greater than 200 µM and greater than 100 µM.
For the compound `COc1ccc(OCC(=O)NCCCCCCCCNc2cccc3c2C(=O)N(C2CCC(=O)NC2=O)C3=O)cc1NC(=O)c1c(N)cccc1S(=O)(=O)c1ccc([N+](=O)[O-])cc1` (stereo unspecified), in series [2], the CC50 is greater than 200 µM. In addition, in series [3], the EC50 is greater than 100 µM.
The matching figures for `COc1ccc(OCC(=O)NCCOCCOCCNc2cccc3c2C(=O)N(C2CCC(=O)NC2=O)C3=O)cc1NC(=O)c1c(N)cccc1S(=O)(=O)c1ccc([N+](=O)[O-])cc1` (stereo unspecified): greater than 200 µM and greater than 100 µM.
On to `COc1ccc(OCC(=O)NCCCCCCNCC(=O)Nc2cccc3c2C(=O)N(C2CCC(=O)NC2=O)C3=O)cc1NC(=O)c1c(N)cccc1Sc1ccc([N+](=O)[O-])cc1` (stereo unspecified), for which, in series [2], the CC50 is greater than 200 µM. For the same compound, the EC50 in series [3] was greater than 100 µM.
The matching figures for `COc1ccc(OCC(=O)NCCCCCCCCNCC(=O)Nc2cccc3c2C(=O)N(C2CCC(=O)NC2=O)C3=O)cc1NC(=O)c1c(N)cccc1S(=O)(=O)c1ccc([N+](=O)[O-])cc1` (stereo unspecified): greater than 200 µM and greater than 100 µM.
The matching figures for `COc1ccc(OCC(=O)NCCCCCCNc2cccc3c2C(=O)N(C2CCC(=O)NC2=O)C3=O)cc1NC(=O)c1c(N)cccc1Sc1ccc([N+](=O)[O-])cc1` (stereo unspecified): greater than 200 µM and greater than 100 µM.
The like results for `COc1ccc(OCC(=O)NCCNCC(=O)Nc2cccc3c2C(=O)N(C2CCC(=O)NC2=O)C3=O)cc1NC(=O)c1c(N)cccc1S(=O)(=O)c1ccc([N+](=O)[O-])cc1` (stereo unspecified) were, in that order, greater than 200 µM and greater than 100 µM.
In series [2], `COc1ccc(OCC(=O)NCCCCCCCCNCC(=O)Nc2cccc3c2C(=O)N(C2CCC(=O)NC2=O)C3=O)cc1NC(=O)c1c(N)cccc1Sc1ccc([N+](=O)[O-])cc1` (stereo unspecified) came in with a CC50 greater than 200 µM. This compound registered an EC50 in series [3] greater than 100 µM.
Regarding `COc1ccc(O)cc1NC(=O)c1c(N)cccc1S(=O)(=O)c1ccc([N+](=O)[O-])cc1`, the result in series [5] was inactive. In series [2], this compound registered a half-maximal cytotoxic concentration (CC50) greater than 200 µM. Moreover, in series [3], the EC50 was 2.14 µM. Besides, in series [4], the selectivity ratio is greater than 93.5.

Source of the values: ChEMBL document CHEMBL6127009, “Discovery of L15 as a novel Vif PROTAC degrader with antiviral activity against HIV-1” (Bioorg Med Chem Lett, 2024).
